Experimental data from patent US4548952A, “2-[(2,6-Dichlorophenyl)amino]phenylacetoxyacetyl derivatives and therapeutic compositions containing same” (priority 1983, dated 1985).

Legend:
[1] = Acute toxicity by oral administration to rats; details: for LD0: oral, rats
Procedure: The acute toxicity of the foregoing compounds according to the present invention was studied by oral administration thereof to rats. The LD0 and LD50 values were determined, together with the limits of reliability as determined by the method of Litchfield and Wilcoxon.

[2] = Hot plate thermal stimulus test on mice (analgesic); type: in vivo; details: gastric catheter, hot plate 56° C., 10 mice, vs control mice
Procedure: (§1) The new 2-[(2,6-dichlorophenyl)amino]phenylacetoxyacetyl derivatives, according to the present invention, are compounds of therapeutic use with anti-inflammatory and analgesic pharmacologic properties, as shown by experimental pharmacologic data presented below. The analgesic activity of the compound (I) where R=H was determined by three known methods as follows.
This test is carried out according to the experimental model of Wolfe, G. and MacDonal, A. D., described in 3. Pharm. Exper. Therap. 80, 300 (1944). This test consists of administering, through a gastric catheter, a suspension of the test compound at the indicated dosages. After 30 minutes, 1 h., 11/2 h. and 2 h. the determinations were made. Mice were placed onto a hot plate at a temperature of 56° C. Table 2 indicates the percentage of protection from pain afforded by the dosages of the test compound in comparison with a group of control mice to which no test compound was administered.

[3] = Plantar carrageenin edema test (anti-inflammatory); type: in vivo, albino Sprague-Dawley male rats; details: gastric catheter; for Inhibition % M ± σ: complementary value to area relative inflammation; for % Area Relative Inflammation (M ± σ): control = 100%
Procedure: The anti-inflammatory activity of two compounds was studied by means of the test of the plantar carrageenin edema (C. A. Winter, Proc. Soc. Exp. Brol. Med. 111, 544-47 (1962). The method used consists of preparing homogeneous lots of albino Sprague-Dawley male rats with weights of from 180-200 gr, to which are administered, by gastric catheter, the test compound suspended in a vehicle containing 0.2% CMC and 0.1% Tween 80, sixty minutes before the production of the subplantar edema. […] Immediately after this, all the rats received via oral administration 20 ml/kg of distilled water to attain uniform hydration. 60 minutes later a 1% carrageenin solution in physiologic serum was administered subcutanaceously into the left rear leg of each rat, at a dosage of 0.1 ml/rat. The same amount of physiologic serum was then injected into the right rear leg of each rat.
The plantar amount of the left and right rear extremities of each rat was determined before the administration of the carrageenin solution, and 1, 2, 3, 4, 5 and 6 hours after the administration thereof by means of a mercury plethysmograph, Ugo Basile Model 7.100. Indomethacin was used as a sample drug for purposes of comparison. Results were calculated as percentages representing the value indicated for each area relative to the value of the areas for the control group to which were assigned the value of 100% inflammation. A complementary value, the percentage of inhibition, was also calculated from the data. The arithmetic average and standard deviation (M±σ) were calculated for the obtained values as to the volumes of each leg, normal or inflamed, for each animal in each group (control and treated).

[4] = Test of abdominal contractions by acetic acid (analgesic); type: in vivo, male mice; details: gastric catheter, 16 mice, half an hour before acetic acid i.p.
Procedure: as §1
This test was carried out according to the experimental model described by Koster R., Anderson, M. and De Bear, E. J. Fed. Proc., 18, 412 (1959). A suspension of the product to be tested was administered to a group of male mice through a gastric catheter half an hour before injecting the mice intraperitoneally with 0.2 ml of a 2% acetic acid solution. The number of abdominal contractions, manifested by drawing in of the rear third of the animal as a consequence of the chemical aggression incited by the acetic acid, were then counted.

[5] = Fetal and teratogenous toxicity; type: in vivo, Sprague-Dawley rats and first generation fetuses; details: 15, 50 and 75 mg/kg/day oral during organogenesis
[6] = Podolorimetric test in a rat (analgesic, yeast-infected leg); type: in vivo; details: 10 rats, vs control rats
Procedure: as §1
This test is based upon the method described by Randall, L. and Selitto, 3. Arch. Int. Pharmacodyn. 111, 409 (1957), consisting of administering the drug in a 1% carboxymethylcellulose (CMC) suspension. The test compound is administered to the rat, and 30 minutes thereafter a 20% yeast suspension is administered into the left leg of the rat and the same amount of physiologic serum is administered to the right leg of the rat. The threshold of the weight supported by both legs is determined 1 h., 2 h. and 4 h. after the administration of the yeast. Table 3 states the percentage of protection in terms of increased weight supported by the yeast-infected leg, relative to the dosage of the test compound, in comparison with a group of control rats to which no test compound was administered.

Row | SMILES | LD0 [1] | % PROTECTION ([2]; 20 mg/kg) | % PROTECTION ([2]; 40 mg/kg) | Inhibition % M ± σ ([3]; 3.0 mg/kg, 32 animals) | % Area Relative Inflammation (M ± σ) ([3]; 3.0 mg/kg, 32 animals) | % PROTECTION (CONTROL OF CONTRACTIONS) ([4]; 100 mg/kg) | % PROTECTION (CONTROL OF CONTRACTIONS) ([4]; 250 mg/kg) | teratogenous effects [5] | toxic effects on the gestating females [5] | % PROTECTION (increased weight supported by the yeast-infected leg) ([6]; 2.5 mg/kg) | % PROTECTION (increased weight supported by the yeast-infected leg) ([6]; 10 mg/kg) | LD50 ([1]; rat, in vivo, po) | Inhibition % M ± σ ([3]; 3.75 mg/kg, 32 animals) | % Area Relative Inflammation (M ± σ) ([3]; 3.75 mg/kg, 32 animals) | Inhibition % M ± σ ([3]; 2.5 mg/kg, 40 animals) | % Area Relative Inflammation (M ± σ) ([3]; 2.5 mg/kg, 40 animals)
1 | O=C(O)COC(=O)Cc1ccccc1Nc1c(Cl)cccc1Cl [I, R = H, 2-[(2,6-dichlorophenyl)amino]phenylacetoxyacetic acid] | 68.03 mg/kg | 22.44% | 24.80% | 33.75% | 63.25 ± 5.88% | 30.81% | 67.62% | did not have any teratogenous effects | did not produce any toxic effects on the gestating females | 32.05% | 45.45% | – | – | – | – | –
2 | O=C(COC(=O)Cc1ccccc1Nc1c(Cl)cccc1Cl)OCc1ccccc1 [I, R = CH2 --C6 H5, Benzyl 2-[(2,6-dichlorophenyl)amino]phenylacetoxyacetate] | 38.51 mg/kg | – | – | – | – | – | – | did not have any teratogenous effects | did not produce any toxic effects on the gestating females | – | – | 95.3 mg/kg | 35.96% | 64.04 ± 7.91% | – | –
3 | COc1ccc2c(c1)c(CC(=O)O)c(C)n2C(=O)c1ccc(Cl)cc1 [INDOMETHACIN, Indomethacin, reference compound] | – | – | – | – | – | – | – | – | – | – | – | – | – | – | 46.52% | 53.48 ± 7.82%
